From article PMC6692352, “DF2726A, a new IL-8 signalling inhibitor, is able to counteract chemotherapy-induced neuropathic pain” (Scientific Reports, 2019)
pIC50: −log10 of the molar value.

Key:
TRPM8 = test: Western blot of DRG of oxaliplatin rats, TRPM8; type: in vivo, male Wistar rats; conditions: 30 mg/kg os
Experimental: Animals were sacrificed and dorsal root ganglia (DRG) (L4-L6) were removed and stored at […]. They were homogenized on ice-cold lysis buffer [20 mM Tris–HCl (pH 7.5), 10 mM NaF, 150 mM NaCl, 1% Nonidet P-40, 1 mM phenylmethylsulfonyl fluoride, 1 mM Na3VO4, leupeptin and trypsin inhibitor 10 μg/mL; 20 µl/sample, as previously described.
After 1 h, tissue lysates were obtained by centrifugation at 20,000 g for 15 min at 4 °C. Protein concentrations were estimated by the Bio-Rad protein assay using bovine serum albumin as standard.
DRG lysate proteins (30 μg) were dissolved in Laemmli sample buffer, boiled for 5 min, and separated on SDS-polyacrylamide gel elctrophoresis and transferred onto nitrocellulose membrane (240 mA for 40 min at room temperature). […] The protein bands were scanned and densitometrically analyzed with a model GS-700 imaging densitometer (Bio-Rad Laboratories, Milan, Italy). […]

CYP 2C19 = CYP 2C19 (Homo sapiens, UniProt P33261); test: CYP inhibition 2C19; type: in vitro ADME
Source text: (§1) Table 1 Physicochemical and in Vitro ADME Properties of DF2726A. | column: DF2726A

p-ERK1/2 = p-ERK1/2 western blotting in F11-derived neurons; type: cell-based; conditions: DF2726A 1 µM + oxaliplatin 20 µM, 24 h
Experimental: Following neuronal differentiation, neurons were treated for 24 h with DF2726A (1 μM final concentration), oxaliplatin (Sigma-Aldrich; 20 µM final concentration), or the combination of the two molecules.
Control and treated cells were collected and lysed in ice-cold RIPA buffer (PBS pH 7.4 containing 0.5% sodium deoxycolate, 1% Igepal, 0.1% SDS, 5 mM EDTA, 1% protease and phosphatase inhibitor cocktails; Sigma-Aldrich) as described in[22],[33]. Protein lysates (30 μg) were separated on 8–12% SDS-polyacrilamide gel and electroblotted onto polyvinyldifluoride membrane (PVDF; Sigma-Aldrich). Nonspecific binding sites were blocked by 5% non-fat dry milk (Bio-Rad Laboratories, Hercules, CA, USA) in Tris buffered saline (TBS: 20 mM Tris- HCl, pH 7.4, containing 150 mM NaCl) for 30 min at RT. […] The relative densities of immunoreactive bands were determined and normalized HRP-conjugated β-actin, using ImageJ software. […]

p-JAK2 = p-JAK2 western blotting in F11-derived neurons; type: cell-based; conditions: 24 h
CYP 3A4 = CYP 3A4 (Homo sapiens, UniProt P08684); test: CYP inhibition 3A4; type: in vitro ADME
Source text: as §1

Metabolic stability, rat = type: in vitro ADME; conditions: Test conc: 2.5 µM
Source text: as §1

acetylated α-tubulin = test: Acetylated α-tubulin immunofluorescence of nerve fibres in paw sections of oxaliplatin rats; type: in vivo, male Wistar rats; conditions: 30 mg/kg os, rat paw sections
Experimental: Animals were sacrificed and a biopsy (3 mm) was taken from pad of the right hind paw. Biopsies were immediately placed in Zamboni’s fixative, where they were left at 4 °C. Tissues were then transferred to 20% sucrose for at least 24 h and used for immunohistochemistry analysis. Specimens were frozen in Optimal Cutting Temperature compound (OCT, Sakura Finetek Inc, CA, USA) and sliced into 20 μm thick serial coronal sections by cryostat AMES LAB-TEK (Westmont, Illinois, USA).
In brief, sections were blocked with phosphate buffer saline (PBS) containing 10% (Bovine Serum Albumin) and 0.3% Tween-20, for 1 h at RT and incubated, overnight at 4 °C, with the primary antibodies: IL-8 (mouse, 1:25, R&D Systems Inc. Minneapolis, MN, USA), PGP9.5 (rabbit, 1:1000, AbD Serotec, NC, USA), acetylated alpha tubulin (mouse, 1:250, Abcam Cambridge, MA, USA) and collagen IV (goat, 1:25, Southern Biotech, Birmingham, AL, USA). Sections were then rinsed in PBS several times before incubation for 2 h at RT with secondary antibodies, donkey AlexaFluor 488 anti-rabbit or donkey AlexaFluor 633 (1:2000), goat anti-mouse conjugated with Alexafluor 488 (1:2000; Life Technologies, Camarillo, CA, USA). […]

Chain of CYP 2C19 (P33261 whole entry): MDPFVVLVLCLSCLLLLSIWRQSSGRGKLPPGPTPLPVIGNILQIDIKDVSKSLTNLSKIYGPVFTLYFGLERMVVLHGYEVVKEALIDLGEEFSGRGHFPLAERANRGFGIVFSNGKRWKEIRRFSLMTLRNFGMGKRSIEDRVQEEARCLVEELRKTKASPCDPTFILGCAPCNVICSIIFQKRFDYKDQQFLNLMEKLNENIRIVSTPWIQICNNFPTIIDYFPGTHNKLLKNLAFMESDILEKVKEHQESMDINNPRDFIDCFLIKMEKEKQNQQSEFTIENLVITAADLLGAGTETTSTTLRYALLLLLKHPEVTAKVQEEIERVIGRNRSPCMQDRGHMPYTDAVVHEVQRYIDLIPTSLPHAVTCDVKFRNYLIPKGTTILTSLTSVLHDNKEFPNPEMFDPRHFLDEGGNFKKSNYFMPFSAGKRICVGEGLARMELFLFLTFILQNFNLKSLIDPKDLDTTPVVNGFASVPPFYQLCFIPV
Chain of CYP 3A4 (P08684 whole entry): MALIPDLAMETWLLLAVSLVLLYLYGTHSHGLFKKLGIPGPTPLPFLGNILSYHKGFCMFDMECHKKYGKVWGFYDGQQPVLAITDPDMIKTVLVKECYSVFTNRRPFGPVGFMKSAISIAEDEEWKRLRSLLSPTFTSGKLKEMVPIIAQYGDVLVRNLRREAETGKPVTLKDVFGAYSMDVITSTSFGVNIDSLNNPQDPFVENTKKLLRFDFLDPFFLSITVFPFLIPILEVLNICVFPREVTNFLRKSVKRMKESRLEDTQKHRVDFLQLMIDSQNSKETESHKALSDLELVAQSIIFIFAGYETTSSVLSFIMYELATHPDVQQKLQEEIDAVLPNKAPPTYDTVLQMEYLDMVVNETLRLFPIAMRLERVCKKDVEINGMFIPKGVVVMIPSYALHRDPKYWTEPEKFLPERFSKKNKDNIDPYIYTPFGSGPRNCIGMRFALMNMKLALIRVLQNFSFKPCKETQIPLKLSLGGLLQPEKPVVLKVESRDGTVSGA

CC(C)(C(=O)O)c1ccc(Nc2nc(C(F)(F)F)cs2)cc1 [DF2726A]
TRPM8 expression in DRG of oxaliplatin rats (TRPM8): significant reduction in the expression
pIC50 (CYP 2C19): < 4.52
p-ERK1/2 protein levels, oxaliplatin-treated neurons (p-ERK1/2): comparable to those of control cells
p-JAK2, oxaliplatin-treated neurons (p-JAK2; DF2726A 1 µM + oxaliplatin 20 µM): restored control conditions
p-JAK2, paclitaxel-treated neurons (p-JAK2; DF2726A + paclitaxel 10 nM): restored control conditions
pIC50 (CYP 3A4): < 4.52
Metabolic stability rat (Metabolic stability, rat): 15.3 µL/min/10^6 cells
Acetylated α-tubulin levels in nerve fibres of oxaliplatin rats (acetylated α-tubulin): completely restored control conditions
